# Assay results taken from publication PMC10064822, “The importance of including the C-terminal domain of PTP1B1-400 to identify potential antidiabetic inhibitors” (Journal of Enzyme Inhibition and Medicinal Chemistry, 2023).
# Like-named read-outs stand apart in the source and are kept apart here.
# Legend:
# PTP1B1-393 = PTP1B1-393 ref [18]; cited from earlier work
# PTP1B1-299 = system: PTP1B1-299; parameters: method as in PMID 15475571; conditions: PTP1B1-299 ref [20]; cited from earlier work
# PTP1B1-301 = PTP1B1-301 ref [18]; cited from earlier work
# PTP1B1-321 = conditions: cited from earlier work
# hPTP1B1-400 [1] = target: T1, hPTP1B1-400 (Homo sapiens, UniProt P18031); experiment: Enzyme kinetics of hPTP1B1-400 inhibition; assay type: biochemical; parameters: the three purified hPTP1B constructs (hPTP1B1-285, hPTP1B1-321, and hPTP1B1-400); His-tag (N); made in house; host or cells: E. coli BL21 (DE3); conditions: for Type of inhibition: hPTP1B1-400, pNPP 0.1-0.5 mM, best fit by R^2; for Vmax: hPTP1B1-400, pNPP substrate, fit of inhibition model
# T1 sequence (P18031 1-400): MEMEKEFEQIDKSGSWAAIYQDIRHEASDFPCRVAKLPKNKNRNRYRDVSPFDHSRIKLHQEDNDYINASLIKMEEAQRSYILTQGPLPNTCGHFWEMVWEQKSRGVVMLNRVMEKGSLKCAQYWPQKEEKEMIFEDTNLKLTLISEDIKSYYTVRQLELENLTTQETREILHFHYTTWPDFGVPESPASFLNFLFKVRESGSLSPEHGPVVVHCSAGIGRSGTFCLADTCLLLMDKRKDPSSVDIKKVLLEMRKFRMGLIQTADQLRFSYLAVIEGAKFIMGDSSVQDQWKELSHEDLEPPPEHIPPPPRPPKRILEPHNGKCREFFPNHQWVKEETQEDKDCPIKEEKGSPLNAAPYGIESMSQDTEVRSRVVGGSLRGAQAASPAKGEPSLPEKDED
# Experimental: The negative control was prepared with the enzyme and substrate in the absence of an inhibitor. The experiments were performed in triplicate. […] (2) y= Vmax x/Km + x,
# Vmax is the maximum velocity, x is the […] concentration, and Km is the Michaelis constant.
# (3) y= Vmax (x)/Km (1+(I/Ki))+x (4) y= Vmax (x)/((1+I)/(α Ki)) /x+Km ((1+I)/ Ki)/(1+I)/(α Ki)), (5) y= Vmax (x)/ x+(Km/(1+I)/Ki)
# Vmax is the maximum velocity, x is the substrate concentration, I is the inhibitor concentration, Km is the Michaelis constant, Ki is the inhibition constant, and α=Vmax without inhibitor/Vmax with inhibitor.
# hPTP1B1-285 = target: T2, hPTP1B1-285 (Homo sapiens, UniProt P18031); experiment: hPTP1B inhibition assay (pNPP), construct hPTP1B1-285; conditions: read-out: Km of the substrate (pNPP); hPTP1B1-285, no inhibitor
# T2 sequence (P18031 1-285): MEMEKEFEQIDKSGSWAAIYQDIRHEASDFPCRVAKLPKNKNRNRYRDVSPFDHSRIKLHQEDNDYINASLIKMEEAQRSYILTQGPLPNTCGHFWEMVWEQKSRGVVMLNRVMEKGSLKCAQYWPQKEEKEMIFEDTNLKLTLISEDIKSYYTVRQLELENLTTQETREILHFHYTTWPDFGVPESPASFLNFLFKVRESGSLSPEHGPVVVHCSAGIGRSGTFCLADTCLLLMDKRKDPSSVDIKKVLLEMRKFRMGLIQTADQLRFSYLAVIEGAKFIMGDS
# hPTP1B1-321 = target: T3, hPTP1B1-321 (Homo sapiens, UniProt P18031); experiment: hPTP1B inhibition assay (pNPP), construct hPTP1B1-321; conditions: read-out: Km of the substrate (pNPP); hPTP1B1-321, no inhibitor
# T3 sequence (P18031 1-321): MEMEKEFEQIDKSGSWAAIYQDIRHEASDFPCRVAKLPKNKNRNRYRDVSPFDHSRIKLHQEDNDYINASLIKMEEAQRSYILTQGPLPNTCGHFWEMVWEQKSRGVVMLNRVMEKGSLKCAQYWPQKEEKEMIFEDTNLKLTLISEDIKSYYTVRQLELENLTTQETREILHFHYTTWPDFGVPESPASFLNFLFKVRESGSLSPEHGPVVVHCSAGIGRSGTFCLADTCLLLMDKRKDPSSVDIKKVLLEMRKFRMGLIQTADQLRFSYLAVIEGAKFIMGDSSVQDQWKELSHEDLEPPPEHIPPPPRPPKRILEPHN
# hPTP1B1-400 [2] = target: T1, hPTP1B1-400; experiment: hPTP1B inhibition assay (pNPP), construct hPTP1B1-400; conditions: read-out: Km of the substrate (pNPP); hPTP1B1-400, no inhibitor
# PTP1B1-405 = PTP1B1-405 ref [7]; cited from earlier work
# PTP1B1-400 = conditions: cited from earlier work
# PTP1B1-298 = PTP1B1-298 ref [44]; cited from earlier work
compound,measurement,setting,value
Cc1cc(-c2c3ccccc3c(Br)c3sc(C)c(C)c23)cc(C)c1O[C@H](Cc1ccccc1)C(=O)O [Ertiprotafib],Inhibition type,PTP1B1-393,Nonclassic kinetics: Aggregation
same,IC50,PTP1B1-299,> 20 µM
same,Inhibition type,PTP1B1-299,Nonclassic kinetics: Aggregation
same,Inhibition type,PTP1B1-301,Nonclassic kinetics: Aggregation
"Oc1cc(Cc2cc(O)c(O)c(Br)c2Cc2cc(O)c(O)c(Br)c2Br)c(Br)c(Br)c1O [BDB, 3-bromo-4,5-bis(2,3-dibromo-4,5-dihydroxybenzyl)-1,2-benzenediol]",IC50,PTP1B1-321; PTP1B1-321 ref [21],1.86 µM
same,Inhibition type,PTP1B1-321; PTP1B1-321 ref [21],Competitive
"[Na+].[Na+].[Na+].[O]=[V]([O-])([O-])[O-] [SO, sodium orthovanadate]",IC50,PTP1B1-321; PTP1B1-321 ref [39–42],1.38 µM
same,Inhibition type,PTP1B1-321; PTP1B1-321 ref [39–42],Competitive
same,Ki,PTP1B1-321; PTP1B1-321 ref [39–42],0.38 µM
same,Type of inhibition,hPTP1B1-400 [1],Uncompetitive
same,Vmax,hPTP1B1-400 [1],3.20 ± 0.80
"O=[N+]([O-])c1ccc(OP(=O)(O)O)cc1 [pNPP, p-nitrophenyl phosphate]",Km,hPTP1B1-285,16.4 ± 1.55 mM
same,Km,hPTP1B1-321,15.7 ± 1.68 mM
same,Km,hPTP1B1-400 [2],2.03 ± 0.11 mM
CC(C)[C@@H](CC[C@@H](C)[C@H]1CC[C@H]2[C@@H]3[C@H](O)C[C@H]4C[C@@H](NCCCNCCCCNCCCN)CC[C@]4(C)[C@H]3CC[C@]12C)OS(=O)(=O)O [Trodusquemine],Inhibition type,PTP1B1-405,Non-competitive
same,IC50,PTP1B1-400; PTP1B1-400 ref [43],1 µM
same,Inhibition type,PTP1B1-400; PTP1B1-400 ref [43],Non-competitive
same,Inhibition type,PTP1B1-321; PTP1B1-321 ref [7],Non-competitive
"Cc1ccc(C(=O)Nc2ccc(S(=O)(=O)O)c3cc(S(=O)(=O)O)cc(S(=O)(=O)O)c23)cc1NC(=O)c1cccc(NC(=O)Nc2cccc(C(=O)Nc3cc(C(=O)Nc4ccc(S(=O)(=O)O)c5cc(S(=O)(=O)O)cc(S(=O)(=O)O)c45)ccc3C)c2)c1 [SUR, suramin]",IC50,PTP1B1-400; PTP1B1-400 ref [28],4.1 µM
same,Inhibition type,PTP1B1-400; PTP1B1-400 ref [28],Competitive
same,Ki,PTP1B1-400; PTP1B1-400 ref [28],7.1 µM
same,IC50,"PTP1B1-321; PTP1B1-321 ref [40], [50]",11 µM
same,Inhibition type,"PTP1B1-321; PTP1B1-321 ref [40], [50]",Competitive
same,Ki,"PTP1B1-321; PTP1B1-321 ref [40], [50]",4 µM
same,Type of inhibition,hPTP1B1-400 [1],Competitive
same,Vmax,hPTP1B1-400 [1],0.64 ± 0.02
C[C@@H]1CC[C@]2(C(=O)O)CC[C@]3(C)C(=CC[C@@H]4[C@@]5(C)C[C@H](O)[C@H](O)C(C)(C)[C@@H]5CC[C@]43C)[C@@H]2[C@]1(C)O [2β-hydroxy pomolic acid],IC50,PTP1B1-321; PTP1B1-321 ref [49],5.88 µM
same,Inhibition type,PTP1B1-321; PTP1B1-321 ref [49],Mixed-competitive
same,Ki,PTP1B1-321; PTP1B1-321 ref [49],7.56 µM
"C[C@H]1[C@H](C)CC[C@]2(C(=O)O)CC[C@]3(C)C(=CC[C@@H]4[C@@]5(C)CC[C@H](O)C(C)(C)[C@@H]5CC[C@]43C)[C@H]12 [UA, ursolic acid]",IC50,PTP1B1-298,7.1 µM
same,Inhibition type,PTP1B1-298,Non-competitive
same,Ki,PTP1B1-298,25.8 µM
same,IC50,PTP1B1-400; PTP1B1-400 ref [28],5.6 µM
same,Inhibition type,PTP1B1-400; PTP1B1-400 ref [28],Non-competitive
same,Ki,PTP1B1-400; PTP1B1-400 ref [28],8.9 µM
same,IC50,PTP1B1-321; PTP1B1-321 ref [45],6.6 µM
same,Inhibition type,PTP1B1-321; PTP1B1-321 ref [45],Competitive
same,IC50,PTP1B1-321; PTP1B1-321 ref [46],3.08 µM
same,Inhibition type,PTP1B1-321; PTP1B1-321 ref [46],Competitive
same,Type of inhibition,hPTP1B1-400 [1],Mixed
same,Vmax,hPTP1B1-400 [1],0.63 ± 0.08
